# Source: patent US12319684B2 (Sanford Burnham Prebys Medical Discovery Institute, priority 2014, dated 2025)
# Read-outs that look alike come from different tables or passages of the source.
# What was measured:
# [1] = target: T1, human apelin receptor (APJ, AGTRL-1, APLNR) (Homo sapiens, UniProt P35414); assay: APJ cAMP cell-based assay (forskolin-stimulated CHO cells, enzyme fragment complementation); conditions: for Emax: CHO, 0.5 h, read-out: APJ cAMP % resp (efficacy)
# T1 construct: host or cells: Chinese hamster ovary cells
# T1 sequence (P35414 1-380): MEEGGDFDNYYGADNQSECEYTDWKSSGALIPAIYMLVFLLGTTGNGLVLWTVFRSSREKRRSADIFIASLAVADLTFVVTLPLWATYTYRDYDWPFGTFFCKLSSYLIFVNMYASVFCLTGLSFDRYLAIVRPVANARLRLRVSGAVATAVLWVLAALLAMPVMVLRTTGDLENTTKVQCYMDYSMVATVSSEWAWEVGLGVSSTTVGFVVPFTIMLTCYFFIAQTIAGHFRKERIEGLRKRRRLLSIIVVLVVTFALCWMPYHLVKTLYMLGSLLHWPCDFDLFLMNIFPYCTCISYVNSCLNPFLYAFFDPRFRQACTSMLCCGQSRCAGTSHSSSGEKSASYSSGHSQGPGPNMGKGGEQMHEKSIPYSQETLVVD
# Method: The assays disclosed herein were performed using cell lines from DiscoveRx, Inc.
# Biological activity was determined in a cell-based assay. This assay detects activation of the receptor by reporting on intracellular cyclic adenosine monophosphate (cAMP) level. Chinese hamster ovary cells engineered to express a stably integrated human apelin receptor (APJ, AGTRL-1, APLNR), were plated into the wells of a microtiter plate. Cells were stimulated with forskolin to increase intracellular cAMP. Immediately following, compounds were added at a range of final concentrations 0.0-100 μM, in DMSO (not to exceed a final DMSO concentration of >1% v/v), and allowed to incubate with the cells for 0.5 h. At the end of the incubation, cells were lysed to stop APJ signaling, and cAMP was quantified using a commercially available assay kit that applies enzyme fragment complementation technology and bioluminescence, in a competitive ELISA format.
# Compound efficacy (% resp) is reported as a percentage of the maximal apelin-13 response at 1 nM (control).
# vasopressin release = conditions: intracerebral injection; cited from earlier work
# [2] = tested on: abdominal aortic aneurysms; conditions: mouse model of abdominal aortic aneurysms; cited from earlier work
# [3] = CHO cells expressing human APJ, forskolin-stimulated, 0.5 h incubation, 50% of control (apelin-13, 1 nM) response, read-out: APJ cAMP EC50
# [4] = percentage of the maximal apelin-13 response at 1 nM (control)
"EC50 [1, 3] [nM]","Emax [1, 4] [%]",Molecule,other results
8620,107,"COc1ccccc1-n1c(SCc2nc(=O)c3c(F)cccc3[nH]2)nnc1-c1cccs1 [Example 56, 5-Fluoro-2-[4-(2-methoxy-phenyl)-5-thiophen-2-yl-4H-[1,2,4]triazol-3-ylsulfanylmethyl]-1H-quinazolin-4-one]",
547,134,"COc1ccccc1-n1c(SCc2nc(=O)c3cccc(C)c3[nH]2)nnc1-c1cccs1 [Example 58, 2-[4-(2-Methoxy-phenyl)-5-thiophen-2-yl-4H-[1,2,4]triazol-3-ylsulfanylmethyl]-8-methyl-1H-quinazolin-4-one]",
42,121,"COc1ccccc1-n1c(SCc2nc(=O)c3cc(C)ccc3[nH]2)nnc1-c1cccs1 [Example 59, 2-[4-(2-Methoxy-phenyl)-5-thiophen-2-yl-4H-[1,2,4]triazol-3-ylsulfanylmethyl]-6-methyl-1H-quinazolin-4-one]",
569,160,"COc1ccccc1-n1c(SCc2nc(=O)c3ccc(C(F)(F)F)cc3[nH]2)nnc1-c1cccs1 [Example 60, 2-[4-(2-Methoxy-phenyl)-5-thiophen-2-yl-4H-[1,2,4]triazol-3-ylsulfanylmethyl]-7-trifluoromethyl-1H-quinazolin-4-one]",
31.5,80,"COc1ccccc1-n1c(SCc2nc(=O)c3cc(Br)ccc3[nH]2)nnc1-c1cccs1 [Example 61, 6-Bromo-2-[4-(2-methoxy-phenyl)-5-thiophen-2-yl-4H-[1,2,4]triazol-3-ylsulfanylmethyl]-1H-quinazolin-4-one]",
53.6,116,"COc1ccccc1-n1c(SCc2nc(=O)c3cc(Cl)ccc3[nH]2)nnc1-c1cccs1 [Example 62, 6-Chloro-2-[4-(2-methoxy-phenyl)-5-thiophen-2-yl-4H-[1,2,4]triazol-3-ylsulfanylmethyl]-1H-quinazolin-4-one]",
125,108,"COc1ccccc1-n1c(SCc2nc(=O)c3ccc(F)cc3[nH]2)nnc1-c1cccs1 [Example 63, 7-Fluoro-2-[4-(2-methoxy-phenyl)-5-thiophen-2-yl-4H-[1,2,4]triazol-3-ylsulfanylmethyl]-1H-quinazolin-4-one]",
365,92,"COc1ccccc1-n1c(SCc2nc(=O)c3cc(C(F)(F)F)ccc3[nH]2)nnc1-c1cccs1 [Example 64, 2-[4-(2-Methoxy-phenyl)-5-thiophen-2-yl-4H-[1,2,4]triazol-3-ylsulfanylmethyl]-6-trifluoromethyl-1H-quinazolin-4-one]",
304,101,"COc1ccc2[nH]c(CSc3nnc(-c4cccs4)n3-c3ccccc3OC)nc(=O)c2c1 [Example 65, 6-Methoxy-2-[4-(2-methoxy-phenyl)-5-thiophen-2-yl-4H-[1,2,4]triazol-3-ylsulfanylmethyl]-1H-quinazolin-4-one]",
482,87,"COc1ccccc1-n1c(SCc2nc(=O)c3ccc(Cl)cc3[nH]2)nnc1-c1cccs1 [Example 66, 7-Chloro-2-[4-(2-methoxy-phenyl)-5-thiophen-2-yl-4H-[1,2,4]triazol-3-ylsulfanylmethyl]-1H-quinazolin-4-one]",
211,79,"COc1ccccc1-n1c(SCc2ccc3ccccc3n2)nnc1-c1cccs1 [Example 68, 2-[4-(2-Methoxy-phenyl)-5-thiophen-2-yl-4H-[1,2,4]triazol-3-ylsulfanylmethyl]-quinoline]",
2030,134,"COc1ccccc1-n1c(SCc2ccc(Cl)cc2)nnc1-c1cccs1 [Example 70, 3-(4-Chloro-benzylsulfanyl)-4-(2-methoxy-phenyl)-5-thiophen-2-yl-4H-[1,2,4]triazole]",
1220,99,"COc1ccccc1-n1c(SCc2ccc(Cl)c(Cl)c2)nnc1-c1cccs1 [Example 71, 3-(3,4-Dichloro-benzylsulfanyl)-4-(2-methoxy-phenyl)-5-thiophen-2-yl-4H-[1,2,4]triazole]",
140,106,"COc1ccccc1-n1c(SCc2ccc([N+](=O)[O-])cc2)nnc1-c1cccs1 [Example 72, 4-(2-Methoxy-phenyl)-3-(4-nitro-benzylsulfanyl)-5-thiophen-2-yl-4H-[1,2,4]triazole]",
10200,166,"COc1ccccc1-n1c(SCc2cccc(F)c2)nnc1-c1cccs1 [Example 73, 3-(3-Fluoro-benzylsulfanyl)-4-(2-methoxy-phenyl)-5-thiophen-2-yl-4H-[1,2,4]triazole]",
15000,80,"COc1ccccc1-n1c(SCc2ccccc2F)nnc1-c1cccs1 [Example 74, 3-(2-Fluoro-benzylsulfanyl)-4-(2-methoxy-phenyl)-5-thiophen-2-yl-4H-[1,2,4]triazole]",
2740,70,"COc1ccccc1-n1c(SCc2ccc(C)cc2)nnc1-c1cccs1 [Example 75, 4-(2-Methoxy-phenyl)-3-(4-methyl-benzylsulfanyl)-5-thiophen-2-yl-4H-[1,2,4]triazole]",
11300,159,"COc1ccccc1-n1c(SCc2cccc(C)c2)nnc1-c1cccs1 [Example 76, 4-(2-Methoxy-phenyl)-3-(3-methyl-benzylsulfanyl)-5-thiophen-2-yl-4H-[1,2,4]triazole]",
8440,111,"COc1ccccc1-n1c(SCc2cc(F)cc(F)c2)nnc1-c1cccs1 [Example 77, 3-(3,5-Difluoro-benzylsulfanyl)-4-(2-methoxy-phenyl)-5-thiophen-2-yl-4H-[1,2,4]triazole]",
,,"COc1ccccc1-n1c(SCc2ccncn2)nnc1-c1cccs1 [Example 78, 4-[4-(2-Methoxy-phenyl)-5-thiophen-2-yl-4H-[1,2,4]triazol-3-ylsulfanylmethyl]-pyrimidine]",EC50 [1]: > 10000 nM; Emax [1]: 50%
> 10000,31,COc1ccccc1-n1c(-c2cccs2)cnc1OCc1csc(-c2ccccc2)n1 [Example 80],
238,101,"COc1ccccc1-n1c(OCc2coc(-c3ccccc3)n2)nnc1-c1cccs1 [Example 81, 4-(2-Methoxy-phenyl)-3-(2-phenyl-oxazol-4-ylmethoxy)-5-thiophen-2-yl-4H-[1,2,4]triazole]",
> 10000,52,"COc1ccccc1-n1c(OCc2ccccc2)nnc1-c1cccs1 [Example 82, 3-(benzyloxy)-4-(2-methoxyphenyl)-5-(thiophen-2-yl)-4H-1,2,4-triazole]",
45,52,"COc1ccccc1-n1c(OCc2cc(=O)n3cc(C)ccc3n2)nnc1-c1cccs1 [Example 83, 2-(((4-(2-methoxyphenyl)-5-(thiophen-2-yl)-4H-1,2,4-triazol-3-yl)oxy)methyl)-7-methyl-4H-pyrido[1,2-a]pyrimidin-4-one]",
680,109,COc1ccccc1-n1c(OCc2csc(-c3ccccc3)n2)nnc1-c1cccs1 [Example 84],
> 10000,,"COc1ccccc1-n1c(NCc2csc(-c3ccc(C)cc3)n2)nnc1-c1cccs1 [Example 86, [4-(2-Methoxy-phenyl)-5-thiophen-2-yl-4H-[1,2,4]triazol-3-yl]-(2-p-tolyl-thiazol-4-ylmethyl)-amine]",
> 10000,,"COc1ccccc1-n1c(NCc2coc(-c3ccc(C)cc3)n2)nnc1-c1cccs1 [Example 87, [4-(2-Methoxy-phenyl)-5-thiophen-2-yl-4H-[1,2,4]triazol-3-yl]-(2-p-tolyl-oxazol-4-ylmethyl)-amine]",
,,apelin,reduction in plasma vasopressin concentrations (vasopressin release): 40%; reduction of aneurysm [2]: 50%

Molecule,"EC50 [1, 3] [nM]","Emax [1, 4] [%]",other results
"COc1ccccc1-n1c(SCc2nc(=O)c3cccc(F)c3[nH]2)nnc1-c1cccs1 [Example 57, 8-Fluoro-2-[4-(2-methoxy-phenyl)-5-thiophen-2-yl-4H-[1,2,4]triazol-3-ylsulfanylmethyl]-1H-quinazolin-4-one]",140,,Emax [1]: 106%
"COc1ccccc1-n1c(SCc2nc(=O)c3cc(OC(F)(F)F)ccc3[nH]2)nnc1-c1cccs1 [Example 69, 2-[4-(2-Methoxy-phenyl)-5-thiophen-2-yl-4H-[1,2,4]triazol-3-ylsulfanylmethyl]-6-trifluoromethoxy-1H-quinazolin-4-one]",1370,,Emax [1]: 59%
"COc1ccccc1-n1c(-c2cccs2)cnc1SCc1cc(=O)n2cc(C)ccc2n1 [Example 79, 2-[1-(2-Methoxy-phenyl)-5-thiophen-2-yl-1H-imidazol-2-ylsulfanylmethyl]-7-methyl-pyrido[1,2-a]pyrimidin-4-one]",1920,,Emax [1]: 54%
